One assay relates to LOUCY (T-ALL). The assay is described as follows: CellTiter-Glo viability 72 h, single agent or 1/1 combination, LOUCY (Example 9). The assay is classed as cell-based. Conditions: single agent or 1/1 combination as labelled. How it is done:
(§1) Cell lines were cultured in the media described above at 37° C. in a humidified atmosphere containing 5% CO2. Cells were seeded in 96 well clear bottom plates (96 well clear-bottom, white, Corning reference 3903) and exposed to the payloads or ADCs at single agents or in 1/1 combinations with vincristine, ABT-199 or compound A2 for 72 h (serially diluted; 9 concentrations each, triplicates). Effects of payloads or ADCs on cell viability were assessed after 3 days of incubation at 37° C./5% CO2 by quantification of cellular ATP levels using CellTiter-Glo reagent (Promega Ref: G7571) at 75 μL reagent/well. All the conditions were tested in triplicates. Luminescence was quantified on a multipurpose plate reader. IC50s were calculated using standard four-parametric curve fitting. […] Each experiment was performed at least twice, with results being reproducible.

A further assay concerns HPB-ALL (T-ALL). The assay is described as follows: CellTiter-Glo viability 72 h, single agent or 1/1 combination with vincristine, ABT-199 or Compound A2, HPB-ALL (Example 9). It counts as cell-based. Conditions: Homo sapiens, HPBALL, single agent or 1/1 combination as labelled. The protocol: as §1
The test system of the next assay is SUDHL8 (DLBCL). Nature of the assay: CellTiter-Glo viability 72 h, single agent or 1/1 combination, SUDHL8 (Example 9). The assay is classed as cell-based. The following applies: Homo sapiens, SU-DHL-8, single agent or 1/1 combination as labelled. The protocol:
as §1
Background: In ATP-based viability assays light output follows the ATP content of the culture.

The next assay concerns MM1S (MM). The assay is described as follows: CellTiter-Glo viability 72 h, single agent or 1/1 combination, MM1S (Example 9). The assay is classed as cell-based. The following applies: Homo sapiens, MM1.S, single agent or 1/1 combination as labelled. The protocol: as §1
The subject of the next assay is ALL-SILL (T-ALL). The assay is described as follows: CellTiter-Glo viability 72 h, single agent or 1/1 combination, ALL-SIL (Example 9). Conditions: single agent or 1/1 combination as labelled. It counts as cell-based. The protocol: Cell lines were cultured in the media described above at 37° C. in a humidified atmosphere containing 5% CO2. […] Effects of payloads or ADCs on cell viability were assessed after 3 days of incubation at 37° C./5% CO2 by quantification of cellular ATP levels using CellTiter-Glo reagent (Promega Ref: G7571) at 75 μL reagent/well. All the conditions were tested in triplicates. Luminescence was quantified on a multipurpose plate reader. IC50s were calculated using standard four-parametric curve fitting.

The next assay relates to H1650 cells. Nature of the assay: CellTiterGlo (CTG) cell viability, 3D, 120 h, H1650 (Example 8). It counts as cell-based, human. Conditions: Homo sapiens, NCI-H1650, H1650 3D.
The test system of the next assay is ncih1436. Nature of the assay: In vitro ADC activity with combination partners, CellTiter-Glo 5 days, ncih1436 (Example 13). Conditions: single agent. The assay is classed as cell-based. How it is done:
(§2) Antibody drug conjugates (ADCs) targeting IgG, B7H3, CD56, DLK1, DLL3, EpCAM, and SEZ6 were tested against cancer cell lines obtained from ATCC (American Type Culture Collection) or from other commercial cell line vendors (cor1279, ncih1436, ncih146, ncih211, ncih524). The cells were cultured in media that is optimal for their growth at 5% CO2, 37° C. in a tissue culture incubator. Prior to seeding for the proliferation assay, the cells were split at least 2 days before the assay to ensure optimal growth density. On the day of seeding, cells were lifted off tissue culture flasks using 0.25% trypsin. Cell viability and cell density were determined using a cell counter (Vi-Cell XR Cell Viability Analyzer, Beckman Coulter). Cells with higher than 85% viability were seeded in white clear bottom 384-well plates (Greiner cat #781098) at a density of 1000 cells per well in 50 μL of standard growth media. Plates were incubated at 37° C. overnight in a tissue culture incubator.
(§3) The ADCs were prepared in standard phosphate buffered solution to desired concentrations. A series of 10 dilutions were made for each ADC. The prepared drug treatments were then added to the cells resulting in final concentrations of 300 nM to 0.015 nM. Combination partners (Venetoclax and Topotecan) were added at fixed concentrations. Acoustic transfer devices (Echo525, Echo550, Beckman Coulter) were used to add the ADCs or combination partners to the cells. Each treatment was tested in triplicate assay plates. Plates were incubated at 37° C. overnight or for 5 days in a tissue culture incubator. The ability of the ADCs to inhibit cell proliferation and survival was assessed using the Promega CellTiter-Glo® proliferation assay. Plates were incubated at room temperature for 20 minutes to stabilize luminescent signals prior to reading using a multimode plate reader (Pherastar, BMG). Luminescent counts of untreated cells were taken the day after seeding (Day 0 readings), and after 5 days of treatment (Day 5 readings). The Day 5 readings of the untreated cells were compared to the Day 0 readings. Assays with at least one cell doubling during the incubation period were considered valid. To evaluate the effect of the drug treatments, luminescent counts from wells containing untreated cells (100% viability) were used to normalize treated samples. The concentrations of treatment required to inhibit 50% of cell growth or survival ([…]) were calculated using a four parameter logistic regression equation.

For another assay, the system named is corl279. The assay is described as follows: In vitro ADC activity with combination partners (Venetoclax, Topotecan), CellTiter-Glo 5 days, corl279 (Example 13). It counts as cell-based. The following applies: single agent. How it is done:
as §2, §3

The subject of a further assay is ncih211. The assay is described as follows: In vitro ADC activity with combination partners, CellTiter-Glo 5 days, ncih211 (Example 13). It counts as cell-based. The following applies: single agent. How it is done: as §2, §3
For a further assay, the system named is ncih524. Nature of the assay: In vitro ADC activity with combination partners, CellTiter-Glo 5 days, ncih524 (Example 13). It counts as cell-based. The following applies: single agent. How it is done: as §2, §3
The test system of the next assay is ncih146. The assay is described as follows: In vitro ADC activity with combination partners, CellTiter-Glo 5 days, ncih146 (Example 13). It counts as cell-based. The following applies: single agent. How it is done:
as §2, §3

Setting [1] is: mean, read-out: LOUCY (T-ALL) IC50 mean.
The mark [2] stands for this setting: n1, read-out: LOUCY (T-ALL) IC50 n1.
The mark [3] stands for this setting: n2, read-out: LOUCY (T-ALL) IC50 n2.
The mark [4] stands for this setting: mean, read-out: HPB-ALL (T-ALL) IC50 mean.
The mark [5] stands for this setting: n1, read-out: HPB-ALL (T-ALL) IC50 n1.
Setting [6] is: n2, read-out: HPB-ALL (T-ALL) IC50 n2.
[7] abbreviates: mean, read-out: SUDHL8 (DLBCL) IC50 mean.
Where [8] appears, read: n1, read-out: SUDHL8 (DLBCL) IC50 n1.
Setting [9] is: n2, read-out: SUDHL8 (DLBCL) IC50 n2.
Setting [10] is: mean, read-out: MM1S (MM) IC50 mean.
Where [11] appears, read: n1, read-out: MM1S (MM) IC50 n1.
The mark [12] stands for this setting: n2, read-out: MM1S (MM) IC50 n2.
Setting [13] is: mean, read-out: ALL-SILL (T-ALL) IC50 mean.
[14] abbreviates: n1, read-out: ALL-SILL (T-ALL) IC50 n1.
Setting [15] is: n2, read-out: ALL-SILL (T-ALL) IC50 n2.

The results in this text go back to US20240269304A1, “BCL-XL INHIBITOR ANTIBODY-DRUG CONJUGATES AND METHODS OF USE THEREOF” (Novartis AG, priority 2020, published 2024).

Like-named read-outs stand apart in the source and are kept apart here.

The term IC50 denotes the concentration needed to halve the response being measured. With `Cc1c(N(C(=O)c2cc(-c3cc(Cl)ccc3C(=O)N3Cc4ccccc4C[C@H]3CN3CCOCC3)n(C)c2C)c2ccc(O)cc2)cc(C#N)n1C` [Compound A2, reference compound], the IC50 in the assay with LOUCY (T-ALL) (setting [1]) was 35.5 nM; with LOUCY (T-ALL) (setting [2]) it was 30 nM; in the assay on LOUCY (T-ALL) (setting [3]) it was 41 nM; in the assay on HPB-ALL (T-ALL) (setting [4]), 6080 nM; in the assay with HPB-ALL (T-ALL) (setting [5]), 5850 nM; with HPB-ALL (T-ALL) (setting [6]) it was 6300 nM. Also, the IC50 with SUDHL8 (DLBCL) (setting [7]) stood at 5740 nM; in the assay with SUDHL8 (DLBCL) (setting [8]) it was 6670 nM; with SUDHL8 (DLBCL) (setting [9]), 4820 nM; in the assay with MM1S (MM) (setting [10]), 7360 nM; in the assay on MM1S (MM) (setting [11]), 7360 nM; with MM1S (MM) (setting [12]) it was 7360 nM. Also, the IC50 was 124 nM in the assay on ALL-SILL (T-ALL) (setting [13]), 128 nM in the assay with ALL-SILL (T-ALL) (setting [14]) and 121 nM in the assay on ALL-SILL (T-ALL) (setting [15]).
Turning to `Cc1c(Nc2nc3ccccc3s2)nnc2c1CCCN2c1ccc(-c2cnn(CC34CC5(C)CC(C)(C3)CC(OCCNCCCO)(C5)C4)c2C)c(C(=O)O)n1` [P25, 6-[3-(1,3-benzothiazol-2-ylamino)-4-methyl-6,7-dihydro-5H-pyrido[2,3-c]pyridazin-8-yl]-3-[1-[[3-[2-(3-hydroxypropylamino)ethoxy]-5,7-dimethyl-1-adamantyl]methyl]-5-methyl-pyrazol-4-yl]pyridine-2-carboxylic acid], the half-inhibitory concentration (IC50) in the assay on LOUCY (T-ALL) (setting [1]) was 1.03 nM; in the assay with LOUCY (T-ALL) (setting [2]) it was 0.8 nM; in the assay with LOUCY (T-ALL) (setting [3]), 1.26 nM; in the assay with HPB-ALL (T-ALL) (setting [4]), 4.6 nM; in the assay on HPB-ALL (T-ALL) (setting [5]), 4.2 nM; in the assay with HPB-ALL (T-ALL) (setting [6]) it was 5 nM. The half-inhibitory concentration (IC50) with SUDHL8 (DLBCL) (setting [7]) was determined as 7.78 nM; with SUDHL8 (DLBCL) (setting [8]), 5.92 nM; in the assay with SUDHL8 (DLBCL) (setting [9]), 9.64 nM; in the assay on H1650 cells (experiment n1, read-out: H1650 3D CTG IC50 n1), 2.8 nM; with H1650 cells (experiment n2, read-out: H1650 3D CTG IC50 n2), 3 nM; in the assay on H1650 cells (mean of n1 and n2, read-out: H1650 3D CTG IC50 Mean of n1 and n2), 2.9 nM. Besides, the IC50 is 74.8 nM in the assay on MM1S (MM) (setting [10]); 56.7 nM in the assay on MM1S (MM) (setting [11]); 92.9 nM in the assay on MM1S (MM) (setting [12]); 1.75 nM in the assay on ALL-SILL (T-ALL) (setting [13]); 2.1 nM in the assay with ALL-SILL (T-ALL) (setting [14]); 1.39 nM in the assay with ALL-SILL (T-ALL) (setting [15]).
As a reminder, the GI50 is the concentration at which growth is held to half of that of the control. Consider `CC[C@@]1(O)C(=O)OCc2c1cc1n(c2=O)Cc2cc3c(CN(C)C)c(O)ccc3nc2-1` [Topotecan, topotecan], for which the GI50 in the assay on ncih1436 (Homo sapiens, NCI-H1436, 120 h) was 0.515 µM; in the assay on corl279 (Homo sapiens, COR-L279, 120 h) it was 0.0152 µM; with ncih211 (Homo sapiens, NCI-H211, 120 h), 0.0125 µM; in the assay on ncih524 (Homo sapiens, NCI-H524, 120 h), 0.00827 µM; in the assay on ncih146 (Homo sapiens, NCI-H146, 120 h) it was 0.00304 µM. For the same compound, the “GI Amax ncih1436” value in the assay with ncih1436 is −23.22. Further, the “GI Amax corl279” value in the assay with corl279 is −95.95. For the same compound, in the assay with ncih211, the “GI Amax ncih211” value is recorded as −89.36. In addition, in the assay with ncih524, the “GI Amax ncih524” value was −83.85. In addition, the “GI Amax ncih146” value in the assay on ncih146 is −91.77.
In the case of `CC1(C)CCC(CN2CCN(c3ccc(C(=O)NS(=O)(=O)c4ccc(NCC5CCOCC5)c([N+](=O)[O-])c4)c(Oc4cnc5[nH]ccc5c4)c3)CC2)=C(c2ccc(Cl)cc2)C1` [Venetoclax, venetoclax], in the assay on ncih1436, the 50% growth inhibitory concentration (GI50) stood at 4.92 µM and the “GI Amax ncih1436” value stood at 13. In the assay with corl279, the GI50 was above 10 µM and the “GI Amax corl279” value is reported as 98.71. Also, in the assay on ncih211, the GI50 came to 3.92 µM and the “GI Amax ncih211” value turned out to be 30.85. For the same compound, in the assay with ncih524, the GI50 was above 10 µM and the “GI Amax ncih524” value worked out at 105.21. Besides, in the assay on ncih146, the GI50 amounted to 0.789 µM and the “GI Amax ncih146” value is recorded as −16.83.
